In article PMC12441834, “Highly Potent and Subtype-Selective Sperm-Specific Potassium Channel SLO3 Inhibitors Display High Tissue Exposure in the Murine Female Reproductive Tract” (ACS Pharmacology & Translational Science, 2025):
Like-named read-outs stand apart in the source and are kept apart here.

Experiments:
hERG [1] = molecular target: T1, hERG (Homo sapiens, UniProt Q12809); assay: hERG patch clamp electrophysiology (HEK-293-hERG); format: cell-based; settings: for selectivity ratio: human, HEK-293 cells stably expressing hERG, pH 7.35, hERG IC50 / hSLO3 IC50, read-out: hERG selectivity [fold] (SLO3 versus hERG); for IC50: whole-cell patch clamp, HEK-293-hERG
T1 construct: expressed in transfected cells
T1 sequence (Q12809 whole entry): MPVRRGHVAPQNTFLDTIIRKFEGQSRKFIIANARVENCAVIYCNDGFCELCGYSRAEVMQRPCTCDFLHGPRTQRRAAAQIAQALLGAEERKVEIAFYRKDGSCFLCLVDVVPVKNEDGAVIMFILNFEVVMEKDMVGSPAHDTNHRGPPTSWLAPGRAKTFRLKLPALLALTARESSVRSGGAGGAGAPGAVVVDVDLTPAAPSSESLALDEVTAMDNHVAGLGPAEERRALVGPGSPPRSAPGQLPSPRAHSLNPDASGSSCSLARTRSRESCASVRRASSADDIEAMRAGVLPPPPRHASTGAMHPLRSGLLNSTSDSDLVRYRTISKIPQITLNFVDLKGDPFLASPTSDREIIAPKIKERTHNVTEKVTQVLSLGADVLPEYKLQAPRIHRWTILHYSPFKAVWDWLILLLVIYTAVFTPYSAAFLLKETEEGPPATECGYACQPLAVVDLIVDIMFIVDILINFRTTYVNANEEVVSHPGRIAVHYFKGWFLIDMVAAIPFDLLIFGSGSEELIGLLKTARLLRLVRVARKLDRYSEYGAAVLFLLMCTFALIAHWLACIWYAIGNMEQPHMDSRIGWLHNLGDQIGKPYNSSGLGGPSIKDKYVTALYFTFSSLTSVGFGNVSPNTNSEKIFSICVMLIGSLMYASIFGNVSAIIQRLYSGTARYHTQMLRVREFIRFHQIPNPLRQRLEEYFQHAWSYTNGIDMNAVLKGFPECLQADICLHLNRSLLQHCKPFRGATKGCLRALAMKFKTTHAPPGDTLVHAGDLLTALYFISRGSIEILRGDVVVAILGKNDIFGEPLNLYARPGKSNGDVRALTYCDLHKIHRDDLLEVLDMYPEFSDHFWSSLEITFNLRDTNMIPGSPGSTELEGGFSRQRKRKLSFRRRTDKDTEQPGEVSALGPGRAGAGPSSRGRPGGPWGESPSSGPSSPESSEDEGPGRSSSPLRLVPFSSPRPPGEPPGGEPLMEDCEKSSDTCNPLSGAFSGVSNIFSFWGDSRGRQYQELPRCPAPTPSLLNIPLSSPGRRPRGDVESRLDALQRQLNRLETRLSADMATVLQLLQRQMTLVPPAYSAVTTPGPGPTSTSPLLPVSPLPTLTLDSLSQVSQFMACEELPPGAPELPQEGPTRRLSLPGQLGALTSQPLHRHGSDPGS
Experimental: Whole-cell patch-clamp electrophysiology was used to record hERG currents from a stably transfected monoclonal cell line expressing human hERG. The HEK-293-hERG cell line was generously provided by Dr. David Weaver (Vanderbilt University). Cells were cultured in a 5% CO2 incubator at 37 °C, dissociated with 0.25% Trypsin-EDTA, and seeded onto 12 mm circular coverslips (Electron Microscopy Sciences, PA, USA) for same-day whole-cell patch-clamp recordings. hERG currents were recorded at room temperature by using an AxoPatch 200B amplifier with Clampex 10.7 software (Molecular Devices, USA). The voltage-clamp protocol consisted of a 4-s step to +30 mV from a −80 mV holding potential, followed by a 4-s step to −40 mV, repeated every 10 s. Data were sampled at 5 kHz and filtered at 1 kHz. Patch pipettes, pulled from 1.5 mm OD thin-walled capillaries (Warner Instruments, MA, USA) using a Sutter P-1000 puller (Sutter Instrument, CA, USA), had resistances of 2–3 MΩ when filled with intracellular solution containing (mM): 135 KCl, 10 HEPES, 1 EGTA, 2 MgCl2, 2 Na2ATP (pH 7.35, adjusted with KOH). The extracellular solution contained (mM): 135 NaCl, 5 KCl, 2 CaCl2, 1 MgCl2, 5 Glucose, 10 HEPES, and 10 Sucrose (pH 7.35, adjusted with NaOH). After establishing stable baseline hERG currents, cells were perfused with compounds at concentrations of 0.03–30 μM until response saturation (typically 2–8 min). Recordings concluded with a 10 μM Quinidine solution to isolate Quinidine-sensitive currents, with compound responses expressed as fractions of this current. Peak “tail” current amplitudes at the beginning of −40 mV steps were analyzed using Clampfit 11.2 (Molecular Devices). IC50 values were calculated by fitting the Hill equation to concentration–response curves (CRCs) using the built-in Y = Bottom + (Top – Bottom)/(1 + (IC50/X)^HillSlope) model (nonlinear regression fit: [Inhibitor] vs response – Variable slope (four parameters)) in GraphPad Prism 10.4 (GraphPad Software).

human SLO3 [2] = molecular target: T2, human SLO3 (Homo sapiens, UniProt A8MYU2); assay: SLO3 patch-clamp electrophysiology, human SLO3-γ2 expressed in HEK293 cells; format: cell-based; settings: transfected HEK293 cells (human SLO3-γ2), whole-cell patch clamp, currents at +100 mV; read-out: hSLO3 IC50
T2 construct: expressed in transfected cells
T2 sequence (A8MYU2 1-1149): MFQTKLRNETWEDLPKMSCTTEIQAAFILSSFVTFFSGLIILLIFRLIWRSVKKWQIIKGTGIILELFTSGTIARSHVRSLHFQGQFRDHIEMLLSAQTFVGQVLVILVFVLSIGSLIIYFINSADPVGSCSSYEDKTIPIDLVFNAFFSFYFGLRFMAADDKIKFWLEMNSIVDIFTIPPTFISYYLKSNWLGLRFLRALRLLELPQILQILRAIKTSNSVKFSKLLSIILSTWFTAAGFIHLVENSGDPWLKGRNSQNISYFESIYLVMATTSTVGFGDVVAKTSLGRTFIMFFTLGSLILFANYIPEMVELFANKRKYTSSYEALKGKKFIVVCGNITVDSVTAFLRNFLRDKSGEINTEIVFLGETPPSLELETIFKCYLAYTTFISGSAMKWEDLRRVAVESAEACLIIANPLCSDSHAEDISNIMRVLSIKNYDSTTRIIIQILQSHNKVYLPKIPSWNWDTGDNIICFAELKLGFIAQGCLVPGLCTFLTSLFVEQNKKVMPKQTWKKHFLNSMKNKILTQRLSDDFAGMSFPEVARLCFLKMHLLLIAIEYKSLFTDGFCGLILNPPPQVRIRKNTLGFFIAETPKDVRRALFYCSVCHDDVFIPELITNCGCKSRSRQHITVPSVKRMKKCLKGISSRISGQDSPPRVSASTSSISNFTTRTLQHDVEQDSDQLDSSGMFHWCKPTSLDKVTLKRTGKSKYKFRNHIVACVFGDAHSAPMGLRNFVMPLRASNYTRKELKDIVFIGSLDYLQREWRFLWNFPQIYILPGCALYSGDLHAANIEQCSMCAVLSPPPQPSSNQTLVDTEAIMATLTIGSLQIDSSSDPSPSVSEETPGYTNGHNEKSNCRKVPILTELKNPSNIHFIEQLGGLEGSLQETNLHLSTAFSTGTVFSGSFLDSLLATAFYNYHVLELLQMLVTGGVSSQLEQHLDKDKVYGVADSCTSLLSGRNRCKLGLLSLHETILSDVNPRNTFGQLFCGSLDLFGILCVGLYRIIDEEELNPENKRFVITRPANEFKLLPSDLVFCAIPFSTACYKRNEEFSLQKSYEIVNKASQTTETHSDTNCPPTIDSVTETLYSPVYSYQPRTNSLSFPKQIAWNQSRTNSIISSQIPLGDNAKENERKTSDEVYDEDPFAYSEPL
T2 sequence (Q8N7C0 24-313 partner): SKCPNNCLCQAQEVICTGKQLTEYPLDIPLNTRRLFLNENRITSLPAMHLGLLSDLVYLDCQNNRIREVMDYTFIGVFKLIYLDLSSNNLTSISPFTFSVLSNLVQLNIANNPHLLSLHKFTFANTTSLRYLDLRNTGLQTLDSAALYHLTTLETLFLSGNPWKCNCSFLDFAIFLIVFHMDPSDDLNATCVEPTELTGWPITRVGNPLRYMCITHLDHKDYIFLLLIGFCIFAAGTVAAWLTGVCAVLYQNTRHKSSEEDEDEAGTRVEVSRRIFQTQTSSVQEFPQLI
Experimental: (§1) HEK293 cells were transfected with the bicistronic vector pBUD-CE4.1 containing the genes of interest and a gene conferring antibiotic resistance. Cells were exposed to gradients of selection antibiotics, and optimal growth conditions for the stable lines were as follows: SLO3 and γ2 (SLO3-γ2) supplemented with 700 μg/mL Zeocin (Invitrogen); human SLO1 and β1 (SLO1-β1) with 1 mg/mL G418 (Sigma) and 3 μg/mL puromycin (Corning, Thermo Fisher); and human SLO1 and β4 (SLO1-β4) with 250 μg/mL Zeocin and 3 μg/mL puromycin. All cell lines were grown in Dulbecco’s Modified Eagle Medium (Gibco, Thermo Fisher) supplemented with 10% fetal bovine serum, 1% penicillin–streptomycin (Millipore Sigma), and selection antibiotics. To generate cells expressing SLO1 and γ2, stable SLO1-expressing HEK293 cells were transiently transfected with expression vectors for γ2 and green fluorescent protein (GFP) in the presence of lipofectamine (Invitrogen) for 5 h.
(§2) The cells were then washed and incubated in supplemented Dulbecco’s Modified Eagle Medium for 48 h before use. Patch-clamp electrophysiology was performed only on cells expressing GFP.
(§3) Currents in HEK293 cells were measured in the whole-cell patch-clamp configuration with an Axopatch 200B amplifier, digitized with a Digidata 1440A, and interfaced with Clampex 10.6.0.13 (Molecular Devices). […] An isolated cell was located on an Axiovert 200 microscope (Zeiss), and a gigaohm seal was formed with a borosilicate pipette with resistance between 3 and 6 MΩ and filled with internal solution (140 mM KMeSO3, 10 mM HEPES, 10 mM MES, 1 mM EGTA, pH 7). The seal was then broken by applying a negative pressure. Cells were kept at a holding potential of −60 mV for 50 ms, tested with a stepped voltage protocol from −80 to +150 mV in 10 mV increments for 100 ms, and then dropped to −40 mV for 50 ms with 2.5 s between sweeps. This protocol was used to record currents present with increasing concentration of our compound of interest or 3 μL/mL vehicle (DMSO) in the bath solution. Individual cells were tested with between 1 and 5 concentrations of the compound of interest or until the patch was lost. Currents were allowed to stabilize before the initial recording and after the perfusion solution was changed before recording.
Data were analyzed with a pClamp 10.6 (Molecular Devices). VU6047606 and VU6032735 inhibition dose–response relationships were fit by the Hill equation in OriginPro 7.5 (OriginLab Corporation): R=1/1+(C/IC50)^n+Ioff , in which R is fractional unblock, C is compound concentration, IC50 is the half inhibition concentration, n is the Hill coefficient, and I off is an offset item for leak current. Error bars in the figures represent the SDs. Each data point is averaged from at least 5 measurements. Curve-fitting results are reported as the fitted values with standard error, which was estimated by OriginPro according to the Error Propagation formula.

hSLO1 [3] = molecular target: T3, hSLO1 (Homo sapiens, UniProt Q12791); assay: SLO1 inhibition in HEK cells; format: cell-based; settings: for SLO1 selectivity (fold selective for SLO3): SLO1 IC50 / hSLO3 IC50
T3 construct: expressed in transfected cells; host or cells: HEK293
T3 sequence (Q12791 whole entry): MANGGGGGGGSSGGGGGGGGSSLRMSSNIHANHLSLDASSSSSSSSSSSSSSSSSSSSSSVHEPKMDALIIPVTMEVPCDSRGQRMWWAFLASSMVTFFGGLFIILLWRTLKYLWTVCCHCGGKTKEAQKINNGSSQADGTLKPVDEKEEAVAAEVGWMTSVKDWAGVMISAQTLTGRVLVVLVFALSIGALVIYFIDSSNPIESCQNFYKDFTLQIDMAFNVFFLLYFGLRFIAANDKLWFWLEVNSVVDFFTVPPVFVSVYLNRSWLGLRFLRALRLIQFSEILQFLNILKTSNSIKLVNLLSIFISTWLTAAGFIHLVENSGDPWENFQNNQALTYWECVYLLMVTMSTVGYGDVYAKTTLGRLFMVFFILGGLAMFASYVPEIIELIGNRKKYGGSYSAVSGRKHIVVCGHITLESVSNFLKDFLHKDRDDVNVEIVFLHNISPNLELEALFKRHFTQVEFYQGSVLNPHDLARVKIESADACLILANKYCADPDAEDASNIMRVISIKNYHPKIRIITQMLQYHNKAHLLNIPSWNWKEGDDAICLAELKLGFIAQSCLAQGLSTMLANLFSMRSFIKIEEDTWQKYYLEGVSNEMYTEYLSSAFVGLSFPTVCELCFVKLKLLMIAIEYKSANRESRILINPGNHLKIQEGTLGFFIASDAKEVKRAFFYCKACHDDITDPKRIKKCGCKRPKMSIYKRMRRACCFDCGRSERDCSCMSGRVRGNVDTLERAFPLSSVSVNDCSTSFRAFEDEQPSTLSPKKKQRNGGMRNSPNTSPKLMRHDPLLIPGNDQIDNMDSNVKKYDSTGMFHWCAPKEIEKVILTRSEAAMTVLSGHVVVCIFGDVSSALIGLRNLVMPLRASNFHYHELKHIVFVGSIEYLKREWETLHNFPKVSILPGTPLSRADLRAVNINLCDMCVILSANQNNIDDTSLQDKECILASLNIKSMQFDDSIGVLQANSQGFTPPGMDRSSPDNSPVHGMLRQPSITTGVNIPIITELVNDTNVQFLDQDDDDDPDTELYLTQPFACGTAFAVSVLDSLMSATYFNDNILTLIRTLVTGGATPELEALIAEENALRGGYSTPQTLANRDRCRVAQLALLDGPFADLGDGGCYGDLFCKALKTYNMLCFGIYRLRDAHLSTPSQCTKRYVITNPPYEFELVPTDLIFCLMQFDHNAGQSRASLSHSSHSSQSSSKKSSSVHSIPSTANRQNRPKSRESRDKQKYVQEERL
Experimental: as §1, §2, §3

hERG [4] = molecular target: T1, hERG; set-up: method as in PMID 36649421; settings: cited from earlier work
human SLO3 [5] = molecular target: T2, human SLO3; set-up: method as in PMID 36649421; settings: earlier work of the Santi Lab; cited from earlier work
hSLO1 [6] = molecular target: T3, hSLO1; set-up: method as in PMID 36649421; settings: cited from earlier work

IC50 (human SLO3 [2]) [nM] | IC50 (hSLO1 [3]) [nM] | SLO1 selectivity (fold selective for SLO3) (hSLO1 [3]) [fold] | Compound | selectivity ratio (hERG [1]) | IC50 (hERG [1]) [nM] | selectivity for SLO3 over hERG (hERG [4]) [fold] | IC50 (human SLO3 [5]) [nM] | selectivity for SLO3 over SLO1 (hSLO1 [6]) [fold]
223 | 34000 | 153 | O=C(CCCS(=O)(=O)c1ccc(Cl)cc1)N1CCC(Oc2nc3ccccc3s2)CC1 [VU0528254] | 4.2 | 928 |  |  | 
445 | 6380 | 14 | O=C(c1ccc(OCc2nc(C3CC3)cs2)cc1)N1CCN(c2ccc(C(F)(F)F)cn2)CC1 [VU0530373] | 1.1 | 511 |  |  | 
 |  |  | COc1ccc(SCC2CCN(C(=O)Cc3ccc(S(=O)(=O)C(C)C)cc3)CC2)cc1 [VU0546110] |  |  | 1.5 | 1290 | 46
